Where a SMILES comes first, the peptide text is derived from it. Bridges are numbered along the chain shown (N, C = ends). [ ]: non-standard residue; d: D form. R8 = C=CCCCCCC[C@@](C)(N)C(=O)O; S5 = C=CCCC[C@](C)(N)C(=O)O
What was measured:
[1] = 28-day toxicity study: survival, NOAEL; assay type: in vivo, CD-1 mice; conditions: for Survival (%): after 28 days, N = 10
Protocol: (§1) Toxicology was performed by IITRI. The study was conducted in compliance with the US Food and Drug Administration (FDA) good laboratory practice (GLP) Regulations (Code of Federal Regulations Title 21 Part 58) to evaluate the toxicokinetics, local tolerability, immunogenicity, and potential toxicity of SAH5-EJ1 following three times per week intravenous (IV) dosing for 28 days in mice. Male and female CD-1 IGS [Crl:CD1(ICR)] mice (135 per sex) were received from Wilmington, MA-based Charles River Laboratories, Inc.’s Kingston facility (Stone Ridge, NY).
Finally, we confirmed the maximum tolerated dose of SAH5-EJ1, evaluating 5, 10, and 15 mg/kg body weight dosages (Table S3, Additional file 1). […] At 15 mg/kg, one male animal died from unknown causes and was classified as an accidental death. Therefore, 10 mg/kg was considered the no-observed-adverse-effect level (NOAEL). […] Increased spleen weights observed in 10 mg/kg and 15 mg/kg-treated mice most likely resulted from extramedullary hematopoiesis, also known as “blueberry muffin baby syndrome”, an asymptomatic event in which red blood cells accumulate outside of the bone marrow (Table S5, Additional file 1). Increased spleen size is likely due to an increase red blood cell production associated with IV injection-affiliated cell death. Clinical chemistry panels indicate that despite the high concentration of SAH5-EJ1 in the liver, liver function is not inhibited, with normal ranges of ALT/AST and total bilirubin (Table 2).
Male (M) and Female (F) mice. Not including mice for recovery study (additional 10 mice/sex), toxicokinetics (56 mice/sex), or immunogenicity (18 mice/sex). Accidental male deaths on day 27/28 at 5mg/kg dosage and day 22/28 at 15 mg/kg dosage. Female death on day 3/28 at 15mg/kg dosage with hypoactivity noted on day 1.

[2] = 28-day toxicity study: injection site reactogenicity; assay type: in vivo, CD-1 mice; conditions: for Injection site reactogenicity: Animals with Signs: 28-day study
Protocol: as §1
Response measured at 6 and 24 hours post-injection.

With CC[C@H](C)[C@H](NC(=O)[C@H](Cc1c[nH]cn1)NC(=O)[C@H](CCCNC(=N)N)NC(=O)[C@H](CCCNC(=N)N)NC(=O)[C@H](CCCNC(=N)N)NC(=O)[C@H](CCSC)NC(=O)[C@H](Cc1ccccc1)NC(=O)[C@H](C)NC(=O)[C@H](CCCNC(=N)N)NC(=O)[C@H](C)NC(=O)[C@H](CCC(N)=O)NC(=O)[C@H](CCCNC(=N)N)NC(=O)[C@H](C)NC(=O)[C@H](C)NC(=O)[C@H](C)NC(=O)[C@H](CCCNC(=N)N)NC(=O)[C@H](C)NC(=O)[C@@H](N)Cc1ccc(O)cc1)C(=O)N[C@H](C(=O)N[C@@H](CCCNC(=N)N)C(=O)N[C@@H](CCCCN)C(=O)N[C@@H](CCCNC(=N)N)C(=O)N[C@]1(C)CCCCCCC=CCCC[C@@](C)(C(=O)N[C@@H](CCCNC(=N)N)C(=O)N[C@@H](CCC(=O)O)C(N)=O)NC(=O)[C@H](CCC(N)=O)NC(=O)[C@H](CC(C)C)NC(=O)[C@H](CC(C)C)NC(=O)[C@H](CCCNC(=N)N)NC(=O)[C@H](CCCNC(=N)N)NC(=O)[C@H](CC(C)C)NC1=O)C(C)C [SAH5-EJ1] (H-YARAAARQARAFMRRRHIVRKR[R8]LRRLLQ[S5]RE-NH2; staple 23-30) the “systemic or target organ toxicity” value ([1]; 5, 10 and 15 mg/kg IV, 28-day repeat toxicity study) was “no evidence of any systemic or target organ toxicity”, the NOAEL at 672 h ([1]; both sexes, CD-1, mouse, in vivo, IV three times per week, 28 days, mice, read-out: no-observed-adverse-effect level (NOAEL)) was 10 mg/kg and the “Survival (%)” value ([1]; female, 5 mg/kg) was 100%. For the same compound, the “Survival (%)” value ([1]; female, 10 mg/kg) was 100%, the “Survival (%)” value ([1]; female, 15 mg/kg) was 90% and the “Survival (%)” value ([1]; male, 5 mg/kg) was 90%. The “Survival (%)” value ([1]; male, 10 mg/kg) was 100%, the “Survival (%)” value ([1]; male, 15 mg/kg) was 90% and the “Edema (animals)” value ([2]; female, 5 mg/kg, 10 examined) was 10. For the same compound, the “Edema: 0 - Normal, no swelling (animals)” value ([2]; female, 5 mg/kg, 10 examined) was 10, the “Edema: 1 - Minimal, slight swelling (animals)” value (“Edema: 1 - Minimal” for short) ([2]; female, 5 mg/kg, 10 examined) was 5 and the “Edema: 2 - Mild, defined swelling (animals)” value (“Edema: 2 - Mild” for short) ([2]; female, 5 mg/kg, 10 examined) was 0. For the same compound, the “Edema: 3 - Moderate, defined swelling, raised border (animals)” value (“Edema: 3 - Moderate, defined swelling” for short) ([2]; female, 5 mg/kg, 10 examined) was 0, the “Erythema and Eschar Formation (animals)” value ([2]; female, 5 mg/kg, 10 examined) was 10 and the “Erythema and Eschar: 0 - Normal (animals)” value ([2]; female, 5 mg/kg, 10 examined) was 10. The “Erythema and Eschar: 1 - Minimal (animals)” value ([2]; female, 5 mg/kg, 10 examined) was 4, the “Erythema and Eschar: 2 - Mild, bright pink/pale, distinct (animals)” value ([2]; female, 5 mg/kg, 10 examined) was 4 and the “Erythema and Eschar: 3 - Moderate, bright red, distinct (animals)” value (from here on “Erythema and Eschar: 3 - Moderate”) ([2]; female, 5 mg/kg, 10 examined) was 0. For the same compound, the “Erythema and Eschar: 4 - Severe, dark red, pronounced (animals)” value (shortened to “Erythema and Eschar: 4 - Severe”) ([2]; female, 5 mg/kg, 10 examined) was 1, the “Injection site reactogenicity: Animals with Signs” value (from here on “Injection site reactogenicity”) ([2]; female, 5 mg/kg, 10 examined) was 10 and the “Edema (animals)” value ([2]; female, 10 mg/kg, 10 examined) was 10. For the same compound, the “Edema: 0 - Normal, no swelling (animals)” value ([2]; female, 10 mg/kg, 10 examined) was 10, the “Edema: 1 - Minimal” value ([2]; female, 10 mg/kg, 10 examined) was 10 and the “Edema: 2 - Mild” value ([2]; female, 10 mg/kg, 10 examined) was 3. The “Edema: 3 - Moderate, defined swelling” value ([2]; female, 10 mg/kg, 10 examined) was 0, the “Erythema and Eschar Formation (animals)” value ([2]; female, 10 mg/kg, 10 examined) was 10 and the “Erythema and Eschar: 0 - Normal (animals)” value ([2]; female, 10 mg/kg, 10 examined) was 10. The “Erythema and Eschar: 1 - Minimal (animals)” value ([2]; female, 10 mg/kg, 10 examined) was 10, the “Erythema and Eschar: 2 - Mild, bright pink/pale, distinct (animals)” value ([2]; female, 10 mg/kg, 10 examined) was 7 and the “Erythema and Eschar: 3 - Moderate” value ([2]; female, 10 mg/kg, 10 examined) was 5. For the same compound, the “Erythema and Eschar: 4 - Severe” value ([2]; female, 10 mg/kg, 10 examined) was 2, the “Injection site reactogenicity” value ([2]; female, 10 mg/kg, 10 examined) was 10 and the “Edema (animals)” value ([2]; female, 15 mg/kg, 15 examined) was 15. The “Edema: 0 - Normal, no swelling (animals)” value ([2]; female, 15 mg/kg, 15 examined) was 15, the “Edema: 1 - Minimal” value ([2]; female, 15 mg/kg, 15 examined) was 14 and the “Edema: 2 - Mild” value ([2]; female, 15 mg/kg, 15 examined) was 12. For the same compound, the “Edema: 3 - Moderate, defined swelling” value ([2]; female, 15 mg/kg, 15 examined) was 1, the “Erythema and Eschar Formation (animals)” value ([2]; female, 15 mg/kg, 15 examined) was 15 and the “Erythema and Eschar: 0 - Normal (animals)” value ([2]; female, 15 mg/kg, 15 examined) was 15. The “Erythema and Eschar: 1 - Minimal (animals)” value ([2]; female, 15 mg/kg, 15 examined) was 10, the “Erythema and Eschar: 2 - Mild, bright pink/pale, distinct (animals)” value ([2]; female, 15 mg/kg, 15 examined) was 14 and the “Erythema and Eschar: 3 - Moderate” value ([2]; female, 15 mg/kg, 15 examined) was 5. The “Erythema and Eschar: 4 - Severe” value ([2]; female, 15 mg/kg, 15 examined) was 6, the “Injection site reactogenicity” value ([2]; female, 15 mg/kg, 15 examined) was 15 and the “Edema (animals)” value ([2]; male, 5 mg/kg, 10 examined) was 10. For the same compound, the “Edema: 0 - Normal, no swelling (animals)” value ([2]; male, 5 mg/kg, 10 examined) was 10, the “Edema: 1 - Minimal” value ([2]; male, 5 mg/kg, 10 examined) was 7 and the “Edema: 2 - Mild” value ([2]; male, 5 mg/kg, 10 examined) was 0. For the same compound, the “Edema: 3 - Moderate, defined swelling” value ([2]; male, 5 mg/kg, 10 examined) was 0, the “Edema: 4 - Severe, pronounced swelling, raised border (animals)” value (shortened to “Edema: 4 - Severe, pronounced swelling”) ([2]; male, 5 mg/kg, 10 examined) was 0 and the “Erythema and Eschar Formation (animals)” value ([2]; male, 5 mg/kg, 10 examined) was 10. For the same compound, the “Erythema and Eschar: 0 - Normal (animals)” value ([2]; male, 5 mg/kg, 10 examined) was 10, the “Erythema and Eschar: 1 - Minimal (animals)” value ([2]; male, 5 mg/kg, 10 examined) was 3 and the “Erythema and Eschar: 2 - Mild, bright pink/pale, distinct (animals)” value ([2]; male, 5 mg/kg, 10 examined) was 2. For the same compound, the “Erythema and Eschar: 3 - Moderate” value ([2]; male, 5 mg/kg, 10 examined) was 0, the “Erythema and Eschar: 4 - Severe” value ([2]; male, 5 mg/kg, 10 examined) was 1 and the “Injection site reactogenicity” value ([2]; male, 5 mg/kg, 10 examined) was 10. The “Edema (animals)” value ([2]; male, 10 mg/kg, 10 examined) was 10, the “Edema: 0 - Normal, no swelling (animals)” value ([2]; male, 10 mg/kg, 10 examined) was 10 and the “Edema: 1 - Minimal” value ([2]; male, 10 mg/kg, 10 examined) was 8. The “Edema: 2 - Mild” value ([2]; male, 10 mg/kg, 10 examined) was 7, the “Edema: 3 - Moderate, defined swelling” value ([2]; male, 10 mg/kg, 10 examined) was 1 and the “Edema: 4 - Severe, pronounced swelling” value ([2]; male, 10 mg/kg, 10 examined) was 1. The “Erythema and Eschar Formation (animals)” value ([2]; male, 10 mg/kg, 10 examined) was 10, the “Erythema and Eschar: 0 - Normal (animals)” value ([2]; male, 10 mg/kg, 10 examined) was 10 and the “Erythema and Eschar: 1 - Minimal (animals)” value ([2]; male, 10 mg/kg, 10 examined) was 6. The “Erythema and Eschar: 2 - Mild, bright pink/pale, distinct (animals)” value ([2]; male, 10 mg/kg, 10 examined) was 8, the “Erythema and Eschar: 3 - Moderate” value ([2]; male, 10 mg/kg, 10 examined) was 4 and the “Erythema and Eschar: 4 - Severe” value ([2]; male, 10 mg/kg, 10 examined) was 2. The “Injection site reactogenicity” value ([2]; male, 10 mg/kg, 10 examined) was 10, the “Edema (animals)” value ([2]; male, 15 mg/kg, 15 examined) was 15 and the “Edema: 0 - Normal, no swelling (animals)” value ([2]; male, 15 mg/kg, 15 examined) was 15. The “Edema: 1 - Minimal” value ([2]; male, 15 mg/kg, 15 examined) was 14, the “Edema: 2 - Mild” value ([2]; male, 15 mg/kg, 15 examined) was 14 and the “Edema: 3 - Moderate, defined swelling” value ([2]; male, 15 mg/kg, 15 examined) was 7. The “Edema: 4 - Severe, pronounced swelling” value ([2]; male, 15 mg/kg, 15 examined) was 2, the “Erythema and Eschar Formation (animals)” value ([2]; male, 15 mg/kg, 15 examined) was 15 and the “Erythema and Eschar: 0 - Normal (animals)” value ([2]; male, 15 mg/kg, 15 examined) was 15. For the same compound, the “Erythema and Eschar: 1 - Minimal (animals)” value ([2]; male, 15 mg/kg, 15 examined) was 11, the “Erythema and Eschar: 2 - Mild, bright pink/pale, distinct (animals)” value ([2]; male, 15 mg/kg, 15 examined) was 15 and the “Erythema and Eschar: 3 - Moderate” value ([2]; male, 15 mg/kg, 15 examined) was 10. The “Erythema and Eschar: 4 - Severe” value ([2]; male, 15 mg/kg, 15 examined) was 6 and the “Injection site reactogenicity” value ([2]; male, 15 mg/kg, 15 examined) was 15.
